Test results as given in publication PMC10233092, “Selective Janus kinase 1 inhibition resolves inflammation and restores hair growth offering a viable treatment option for alopecia areata” (Skin Health and Disease, 2023).
Values joined by “and” are separate entries in the source; they are usually repeats but may differ in a detail not shown here. Equal values may be shown once.

How the values were obtained:
JAK1 = JAK1 (Homo sapiens, UniProt P23458); experiment: JAK1 kinase inhibition, Calliper assay; type: biochemical; details: physiological ATP concentration of 5 mM
Chain of JAK1 (P23458 whole entry, species assumed): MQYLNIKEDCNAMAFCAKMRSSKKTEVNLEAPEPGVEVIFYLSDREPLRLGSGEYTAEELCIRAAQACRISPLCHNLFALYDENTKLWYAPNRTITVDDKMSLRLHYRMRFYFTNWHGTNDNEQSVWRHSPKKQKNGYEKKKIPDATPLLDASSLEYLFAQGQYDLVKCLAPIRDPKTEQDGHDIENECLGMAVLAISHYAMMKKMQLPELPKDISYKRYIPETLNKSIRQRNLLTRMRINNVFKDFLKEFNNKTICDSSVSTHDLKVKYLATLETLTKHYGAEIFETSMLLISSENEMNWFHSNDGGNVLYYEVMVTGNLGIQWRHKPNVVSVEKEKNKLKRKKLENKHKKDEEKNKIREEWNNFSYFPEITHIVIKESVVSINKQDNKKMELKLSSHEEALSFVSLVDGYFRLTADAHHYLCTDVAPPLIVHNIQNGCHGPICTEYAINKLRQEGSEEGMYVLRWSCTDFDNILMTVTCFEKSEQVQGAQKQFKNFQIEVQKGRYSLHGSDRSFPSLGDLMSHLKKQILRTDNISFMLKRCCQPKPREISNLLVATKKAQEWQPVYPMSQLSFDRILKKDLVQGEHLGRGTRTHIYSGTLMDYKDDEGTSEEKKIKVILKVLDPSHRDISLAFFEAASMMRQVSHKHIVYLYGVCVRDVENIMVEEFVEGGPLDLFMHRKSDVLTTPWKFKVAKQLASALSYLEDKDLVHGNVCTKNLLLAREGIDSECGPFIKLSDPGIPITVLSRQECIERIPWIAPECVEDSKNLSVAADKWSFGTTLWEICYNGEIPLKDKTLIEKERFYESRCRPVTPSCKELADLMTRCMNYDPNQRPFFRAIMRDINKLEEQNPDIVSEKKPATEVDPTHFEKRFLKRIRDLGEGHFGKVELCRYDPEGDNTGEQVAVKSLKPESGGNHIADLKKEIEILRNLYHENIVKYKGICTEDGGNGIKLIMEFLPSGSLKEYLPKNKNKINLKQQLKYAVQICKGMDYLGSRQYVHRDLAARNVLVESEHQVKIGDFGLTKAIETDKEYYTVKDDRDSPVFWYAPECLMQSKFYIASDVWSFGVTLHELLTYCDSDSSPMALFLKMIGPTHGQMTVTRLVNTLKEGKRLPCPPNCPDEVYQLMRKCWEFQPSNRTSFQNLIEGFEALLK

[1] = Plasma protein binding by equilibrium dialysis; type: in vitro ADME; details: mouse plasma
Excerpt: Detailed description in Supplementary materials.

[2] = test system: C3H/HeJ mouse model of AA; experiment: Hair growth (Hair Index Score) in C3H/HeJ graft-induced AA mice; type: in vivo; details: for Hair index score (% area x score, 0 to 3): individual mice and mean±SD
Method: Female C3H/HeJ graft‐induced mice were used as a preclinical model of Alopecia Areata (AA) according to previous publications.[45], [46], [47] Healthy C3H/HeJ and mice with fully developed AA (16–24 weeks after induction of disease) were monitored by means of body weight and hair index score on a weekly basis for 12 weeks, with free access to food and water (Healthy and AA groups, respectively).
Hair growth was evaluated using a scoring index (Hair Index Score, HIS). A score from 0 to 3 (0 = no fur, 1 = stubble, short broken hairs, 2 = sparse, intermediate length hairs, 3 = normal length and density hairs) was taken times the surface area of the mouse with each respective score (dorsal area = 50%, ventral area = 50%).
12 mice were given once daily servings of Cmpd A for free eating at approximately 100 mg/kg (compound dissolved in 10 ml tap water and mixed with 5 g grounded R70 standard rodent chow from Lantmännen, Sweden) for 4 weeks. Typically, these servings were finished within 2 h. Six mice were terminated at the end of the treatment period, blood and skin taken for determination of drug concentration and skin sampled for histopathological evaluation (see below, these mice are representing the systemic JAK1 inhibition group in histopathological evaluations). Skin biopsies for mRNA expression and blood was sampled from the other 6 mice where after these mice were followed off treatment for an additional 8 weeks when terminal samples were taken (8w off Tx group).
Another set of 6 mice were treated topically on the right side of their back with Cmpd B (0.1% cream formulation, Eucerin Aquaporin rich) for 12 weeks (local JAK1 inhibition group). Initially, twice weekly for 2 weeks followed by once weekly due to high tissue retention. Plasma exposure was evaluated during the course of the study as well as at termination when also skin was sampled for exposure, histopathological evaluation and mRNA expression.
The aim of the study was to achieve similar skin exposures by both routes of administration but only systemic exposure after oral administration. […] Blood, skin, lymph nodes and spleens were collected at termination for evaluation of exposure, mRNA expression, histopathology (RNAScope) and cell differentials (flow cytometry). Untreated healthy and alopecic mice served as controls (n = 6).

JAK3 = biological target: T1, JAK3 (Homo sapiens, UniProt P52333); experiment: JAK3 kinase inhibition, Calliper assay; type: biochemical; details: physiological ATP concentration of 5 mM
T1 sequence (P52333 1-1124): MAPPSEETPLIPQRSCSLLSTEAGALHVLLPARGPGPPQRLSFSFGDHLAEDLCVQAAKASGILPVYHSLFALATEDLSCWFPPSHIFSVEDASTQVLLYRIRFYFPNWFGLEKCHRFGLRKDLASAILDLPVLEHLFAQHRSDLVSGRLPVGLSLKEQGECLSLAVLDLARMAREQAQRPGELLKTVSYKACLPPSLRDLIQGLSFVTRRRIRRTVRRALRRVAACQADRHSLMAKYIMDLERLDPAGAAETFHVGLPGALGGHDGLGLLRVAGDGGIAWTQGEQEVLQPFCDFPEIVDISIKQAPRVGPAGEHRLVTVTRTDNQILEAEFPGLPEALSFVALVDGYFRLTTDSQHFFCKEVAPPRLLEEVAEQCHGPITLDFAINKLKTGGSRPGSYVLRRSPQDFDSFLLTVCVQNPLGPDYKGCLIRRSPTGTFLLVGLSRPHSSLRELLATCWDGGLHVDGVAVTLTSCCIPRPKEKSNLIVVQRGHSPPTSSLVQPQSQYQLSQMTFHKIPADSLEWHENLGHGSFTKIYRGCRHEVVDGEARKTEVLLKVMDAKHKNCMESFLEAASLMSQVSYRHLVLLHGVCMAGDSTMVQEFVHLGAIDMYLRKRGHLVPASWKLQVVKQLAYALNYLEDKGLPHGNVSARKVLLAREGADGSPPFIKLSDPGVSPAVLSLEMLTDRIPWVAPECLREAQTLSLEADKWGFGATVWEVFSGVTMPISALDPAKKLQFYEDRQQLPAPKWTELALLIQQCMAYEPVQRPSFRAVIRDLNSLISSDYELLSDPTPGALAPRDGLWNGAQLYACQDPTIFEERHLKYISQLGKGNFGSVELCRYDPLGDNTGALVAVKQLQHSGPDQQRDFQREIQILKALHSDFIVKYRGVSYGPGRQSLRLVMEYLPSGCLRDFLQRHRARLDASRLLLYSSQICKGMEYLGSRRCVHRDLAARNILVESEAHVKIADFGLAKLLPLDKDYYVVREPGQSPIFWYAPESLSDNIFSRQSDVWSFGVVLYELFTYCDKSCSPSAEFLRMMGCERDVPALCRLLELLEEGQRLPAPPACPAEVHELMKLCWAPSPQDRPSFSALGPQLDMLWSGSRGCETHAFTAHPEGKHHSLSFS

[3] = Caco permeability and efflux; type: in vitro ADME; details: human, Caco-2
Excerpt: TABLE 2 In vitro and in vivo DMPK properties of Cmpd A, B & C | column: In vitro mouse & physical chemical properties / Caco AtB 10^−6 cm/s/Efflux ratio ^b

Basic pKa = type: physicochemical; details: read-out: Basic pKa's
Excerpt: TABLE 2 In vitro and in vivo DMPK properties of Cmpd A, B & C | column: In vitro mouse & physical chemical properties / Basic pKa's

With Cc1cnc(Nc2cccnc2F)nc1-c1c[nH]c2c(NC(=O)[C@@H](C)N3CCN(C)CC3)cccc12 [Cmpd A] the IC50 (JAK1) was 27 nM, the “f u, plasma” value [1] was 0.038 and the “remission after treatment cessation” value ([2]; AA mice, 4 weeks treatment, followed 8 weeks off treatment) was “relapsed after treatment cessation”. For the same molecule, the “hair growth, result in words” value ([2]; AA mice, oral daily servings (systemic exposure)) was “quick and complete restoration of hair growth”, the “time to complete regrowth (Hair Index Score)” value ([2]; AA mice, oral treatment, n = 6 per group) was no more than 4 weeks and the “Hair index score (% area x score, 0 to 3)” value ([2]; Systemic JAK1i group terminated at w4 (oral ~100 mg/kg daily), w0, n=6, 100 mg/kg) was 0 and 20. For the same molecule, the “Hair index score (% area x score, 0 to 3)” value ([2]; Systemic JAK1i group terminated at w4 (oral ~100 mg/kg daily), w0, n=6, 100 mg/kg, mean) was 3±8, the “Hair index score (% area x score, 0 to 3)” value ([2]; Systemic JAK1i group terminated at w4, w1) was 0 and 15 and 10 and the “Hair index score (% area x score, 0 to 3)” value ([2]; Systemic JAK1i group terminated at w4, w1, mean) was 7±7. For the same molecule, the “Hair index score (% area x score, 0 to 3)” value ([2]; Systemic JAK1i group terminated at w4, w2) was 160 and 170 and 180 and 120 and 190, the “Hair index score (% area x score, 0 to 3)” value ([2]; Systemic JAK1i group terminated at w4, w2, mean) was 163±24 and the “Hair index score (% area x score, 0 to 3)” value ([2]; Systemic JAK1i group terminated at w4, w3) was 280 and 285 and 290 and 250 and 295. For the same molecule, the “Hair index score (% area x score, 0 to 3)” value ([2]; Systemic JAK1i group terminated at w4, w3, mean) was 280±16, the “Hair index score (% area x score, 0 to 3)” value ([2]; Systemic JAK1i group terminated at w4, w4) was 300 and the “Hair index score (% area x score, 0 to 3)” value ([2]; Systemic JAK1i group terminated at w4, w4, mean) was 300±0. For the same molecule, the “Hair index score (% area x score, 0 to 3)” value ([2]; Systemic JAK1i group treated 4 weeks then followed off treatment, w0, n=6) was 125 and 50 and 20 and 90, the “Hair index score (% area x score, 0 to 3)” value ([2]; Systemic JAK1i group treated 4 weeks then followed off treatment, w0, n=6, mean) was 71±38 and the “Hair index score (% area x score, 0 to 3)” value ([2]; Systemic JAK1i group treated 4 weeks then off treatment, w1) was 125 and 50 and 20 and 90. The “Hair index score (% area x score, 0 to 3)” value ([2]; Systemic JAK1i group treated 4 weeks then off treatment, w1, mean) was 71±38, the “Hair index score (% area x score, 0 to 3)” value ([2]; Systemic JAK1i group treated 4 weeks then off treatment, w2) was 170 and 200 and 140 and 180 and 190 and the “Hair index score (% area x score, 0 to 3)” value ([2]; Systemic JAK1i group treated 4 weeks then off treatment, w2, mean) was 180±23. For the same molecule, the “Hair index score (% area x score, 0 to 3)” value ([2]; Systemic JAK1i group treated 4 weeks then off treatment, w4) was 285 and 295 and 300, the “Hair index score (% area x score, 0 to 3)” value ([2]; Systemic JAK1i group treated 4 weeks then off treatment, w4, mean) was 295±5 and the “Hair index score (% area x score, 0 to 3)” value ([2]; Systemic JAK1i group treated 4 weeks then off treatment, w8 (4 weeks off)) was 245 and 200 and 210 and 195 and 270 and 75. The “Hair index score (% area x score, 0 to 3)” value ([2]; Systemic JAK1i group treated 4 weeks then off treatment, w8 (4 weeks off), mean) was 199±67, the “Hair index score (% area x score, 0 to 3)” value ([2]; Systemic JAK1i group treated 4 weeks then off treatment, w12 (8 weeks off)) was 90 and 60 and 85 and 45 and 205 and 35 and the “Hair index score (% area x score, 0 to 3)” value ([2]; Systemic JAK1i group treated 4 weeks then off treatment, w12 (8 weeks off), mean) was 87±62. For the same molecule, the IC50 (JAK3) was greater than 30000 nM, the efflux ratio ([3]; Efflux ratio = BtA/AtB) was 1 and the Papp A→B ([3]; read-out: Caco AtB) was 21 ×10⁻⁶ cm/s. The pKa (Basic pKa) was 7.9.
